Assay results published in patent US5006554A, “Organotin compounds” (The United States of America as represented by the …, priority 1989, dated 1991).

Assays:
[1] = Degradation on exposure to direct sunlight in quartz tubes (loss of compound after 48 h, GC MS); type: physicochemical; conditions: for loss of compound: exposure to direct sunlight, quartz tubes, seawater solutions, after 48 h; for stability in seawater relative to tributyltin bromide, presence of light: in words
Description: Degradation tests of the compounds included making ethanol solutions of the organotin bromides that were prepared at a concentration of approximately 1 mg/cm^3. Aliquots of the ethanol solutions were added to either 3.5% sodium bromide (NaBr) containing 1% acetone or to filtered seawater to obtain approximately 1-5 ppm concentrations in the seawater. […] Aliquots (10 cm^3) of the solutions were extracted at timed intervals with 1 cm^3 hexane after acidification with 0.1 cm^3 concentrated hydrochloric acid (HCl). Samples were analyzed by GC MS.
(§1) Half-lives of 33 days, 17 days and 16 days were estimated for tributyltin bromide, tri-3-butenyltin bromide and tri-1-butenyltin bromide in seawater, protected from UV light and held at a constant room temperature.

[2] = Degradation in seawater protected from UV light at constant room temperature (half-life, GC MS); type: physicochemical; conditions: for stability in seawater relative to tributyltin bromide, absence of light: in words; for Half-life: protected from UV light, constant room temperature, estimated
Description: Degradation tests of the compounds included making ethanol solutions of the organotin bromides that were prepared at a concentration of approximately 1 mg/cm^3. Aliquots of the ethanol solutions were added to either 3.5% sodium bromide (NaBr) containing 1% acetone or to filtered seawater to obtain approximately 1-5 ppm concentrations in the seawater. The sodium bromide (NaBr) solution was placed in 125 cm^3 quartz tubes and exposed to sunlight over 48 h. The seawater solutions were kept in closed 500 cm^3 polycarbonate jars in the laboratory. Aliquots (10 cm^3) of the solutions were extracted at timed intervals with 1 cm^3 hexane after acidification with 0.1 cm^3 concentrated hydrochloric acid (HCl). Samples were analyzed by GC MS.
as §1

[3] = system: Photobacterium phosphoreum NRRL B-11177; assay: Microtox toxicity bioassay: reduction in light output by a luminescent bacterium; type: cell-based; conditions: relative to tributyltin bromide, from EC50
Description: Relative toxicity of compounds was determined using a Microtox Toxicity Analyzer Model 2055, manufactured by Microbics Corporation, Carlsbad, Calif., USA. This bioassay measures the relative reduction in light output by a luminescent bacterium, Photobacterium phosphoreum NRRL B-11177, when exposed to a toxicant. The bacteria are provided in a convenient freeze-dried form by Microbics Corporation and are immediately activated by the addition of 1 cm^3 of distilled water.
For Microtox testing, stock solutions of the compounds were prepared in 95% ethanol at approximately 1-2 mg/cm^3 Appropriate amounts of the ethanol solutions were added to 2% aqueous sodium chloride (NaCl) to achieve a workable concentration while keeping the ethanol concentration as low as possible. Typically, the ethanol concentration was about 0.05%.
Serial dilutions of each compound for measurement were performed in the Microtox photometer/incubator at 15° C. Controls consist of triplicate 1 cm^3 portions of 2% sodium chloride and candidate toxics were prepared in and subsequently serially diluted in 2% sodium chloride, with a final volume of 1 cm^3 for each dilution. After a 5-minute period for temperature equilibration, 10 μl of rehydrated bacteria was added to each of the controls and the serial dilutions of the test compound. […]

[4] = Stability and chemical reactivity of the butenyltin compounds (neat, in solvents, in reaction mixture); type: physicochemical; conditions: for stability / reactivity in the synthesis mixture: crude reaction mixture, synthesis side-products; for stability as neat compound and in inert solvents: inert solvents (also ethanol)
Excerpt: Synthesis of the tetrabutenyltins presented no great difficulty as long as the Grignard reagent was present in large excess to assure complete alkylation. […] Under these conditions alkenyltin compounds were identified containing various numbers of […] groups in the mixture.
The other two tributenyltin bromides were stable as neat compounds, in inert solvents and in ethanol for a reasonable length of time. Chemical reactivity appeared to follow the order allyl > vinyl > alkyl.

Compound | loss of compound [1] | stability in seawater relative to tributyltin bromide, presence of light [1] | stability in seawater relative to tributyltin bromide, absence of light [2] | Half-life [2] | factor by which less toxic than tributyltin bromide [3] | stability / reactivity in the synthesis mixture [4] | stability as neat compound and in inert solvents [4] | stability / reactivity in the synthesis mixture ([4]; listed as Tri-2-butenyltin bromide) | stability / reactivity in the synthesis mixture ([4]; listed as tri-2butenyltin bromide) | stability sufficient for degradation and toxicity determinations ([4]; in words) | order of chemical reactivity ([4]; allyl > vinyl > alkyl)
CCC=[CH][Sn]([Br])([CH]=CCC)[CH]=CCC [tri-1-butenyltin bromide] | about 80% | less stable in seawater | less stable in seawater | 16 days | about three | tended spontaneously to form black precipitates during solvent evaporation of the crude mixture | stable as neat compounds and in inert solvents | – | – | – | –
CC=C[CH2][Sn]([Br])([CH2]C=CC)[CH2]C=CC [tri-2-butenyltin bromide] | – | – | – | – | – | – | – | so reactive with the synthesis side-products that it could not be isolated | highly reactive and therefore transient | too reactive for other than structural studies | –
C=CC[CH2][Sn]([Br])([CH2]CC=C)[CH2]CC=C [tri-3-butenyltin bromide] | ~100% | less stable in seawater | less stable in seawater | 17 days | six | tended spontaneously to form black precipitates during solvent evaporation of the crude mixture | stable as neat compounds and in inert solvents | – | – | – | fell between tri-1-butenyltin bromide, containing vinylic carbons, and tributyltin bromide, the alkyl compound
CCC[CH2][Sn]([Br])([CH2]CCC)[CH2]CCC [tributyltin bromide, reference compound] | about 15% | – | – | 33 days | – | – | – | – | – | – | –
